Consider 32 molecules from patent publication US20250214969A1, “PROTEIN DEGRADERS AND USES THEREOF” (Kymera Therapeutics, Inc., priority 2022, published 2025).

The structures appear in SMILES notation. Bounds are passed on as bounds.

In the first experiment the target is T1, truncated His-MBP-Tev-KLHDC2 (residues 1-363) (Homo sapiens, UniProt Q9Y2U9).
T1 construct: truncated His -MBP-Tev-KLHDC2 (residues 1-363) purified from E. coli; made in house; host or cells: E. coli
T1 sequence (Q9Y2U9 1-363): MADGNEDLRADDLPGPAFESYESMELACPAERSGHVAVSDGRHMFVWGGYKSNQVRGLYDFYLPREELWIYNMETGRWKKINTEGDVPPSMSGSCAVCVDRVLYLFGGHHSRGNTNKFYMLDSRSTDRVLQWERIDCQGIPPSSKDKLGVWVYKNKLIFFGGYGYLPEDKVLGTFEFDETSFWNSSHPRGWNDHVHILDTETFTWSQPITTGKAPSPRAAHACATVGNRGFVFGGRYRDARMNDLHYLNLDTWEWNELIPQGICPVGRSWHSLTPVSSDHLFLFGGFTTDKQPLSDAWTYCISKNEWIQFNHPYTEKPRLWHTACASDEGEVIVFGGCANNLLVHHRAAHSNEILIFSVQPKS
Nature of the experiment: KLHDC2 HTRF binding assay. To be noted: 1 nM KLHDC2 (residues 1-363), fluorescein-labeled diglycine peptide probe.
In general, IC50 refers to the concentration that inhibits the measured activity by half. For `O=C(O)Cn1cc(-c2cccc(OCc3ccccc3)c2)ccc1=O` [I-300], the half-inhibitory concentration (IC50) is > 5 µM.

With `O=C(O)Cn1cc(-c2cncc(OCc3ccccc3)c2)ccc1=O` [I-301], the IC50 was > 5 µM.

On to `NC(=O)Cc1cccc(-c2ccc(=O)n(CC(=O)O)c2)c1` [I-302], for which the IC50 was > 5 µM.

Regarding `O=C(O)Cn1cc(-c2cccc(CN3CCCCC3)c2)ccc1=O` [I-303], the IC50 was > 5 µM.

Take `O=C(O)Cn1cc(-c2cccc(CN3CCOCC3)c2)ccc1=O` [I-304]: the IC50 was > 5 µM.

Take `CN1CCN(Cc2cccc(-c3ccc(=O)n(CC(=O)O)c3)c2)CC1` [I-305]: the IC50 is > 5 µM.

Regarding `O=C(O)Cn1cc(CC(=O)Nc2ccccc2)ccc1=O` [I-306], the IC50 was > 5 µM.

Regarding `O=C(O)Cn1cc(N2Cc3ccccc3C2=O)ccc1=O` [I-307], the IC50 is > 5 µM.

With `Cc1ccc(CC(C)(C)O)cc1-c1ccc(=O)n(CC(=O)O)c1` [I-308], the IC50 was > 5 µM.

For the molecule `Cc1c(Cl)cccc1OCC(=O)Nc1ccc(=O)n(CC(=O)O)c1` [I-309], the IC50 was 0.5 to 5 µM.

As to `CC(Cc1ccccc1Cl)C(=O)Nc1ccc(=O)n(CC(=O)O)c1` (stereo not shown) [I-310], the IC50 was > 5 µM.

In turn, `O=C(O)Cn1cc(NC(=O)c2ccc(-c3ccccc3)c(F)c2)ccc1=O` [I-311] came in with an IC50 of 0.5 to 5 µM.

`O=C(O)Cn1cc(-c2ccc(N3CCOCC3)cc2)ccc1=O` [I-312]: the IC50 was > 5 µM.

Consider `NC(=O)Cc1ccc(-c2ccc(=O)n(CC(=O)O)c2)cc1` [I-313], for which the IC50 was > 5 µM.

In the case of `O=C(O)Cn1cc(-c2cccc(N3CCCCC3)c2)ccc1=O` [I-314], the half-maximal inhibitory concentration (IC50) was > 5 µM.

`O=C(O)Cn1cc(NC(=O)c2cccc(-c3ccccc3)c2)ccc1=O` [I-315]: the IC50 was 0.5 to 5 µM.

As for `Cc1cc(=O)n(CC(=O)O)cc1NC(=O)c1ccccc1` [I-316], the IC50 is > 5 µM.

`O=C(O)Cn1cc(NS(=O)(=O)c2ccccc2)ccc1=O` [I-317]: the IC50 is > 5 µM.

`CCc1ccccc1C(=O)Nc1ccc(=O)n(CC(=O)O)c1` [I-318]: the IC50 is > 5 µM.

Consider `Cc1cccc(Cl)c1C(=O)Nc1ccc(=O)n(CC(=O)O)c1` [I-319], for which the concentration for half-maximal inhibition (IC50) was > 5 µM.

With `COc1cc2ccccc2cc1C(=O)Nc1ccc(=O)n(CC(=O)O)c1` [I-320], the half-inhibitory concentration (IC50) was > 5 µM.

`O=C(O)Cn1cc(NC(=O)c2ccccc2C(F)F)ccc1=O` [I-321]: the IC50 is > 5 µM.

Turning to `O=C(O)Cn1cc(-c2cccc(N3CCOCC3)c2)ccc1=O` [I-322], the IC50 was > 5 µM.

As for `Cc1cc(-c2ccc(=O)n(CC(=O)O)c2)ccc1OCc1ccccc1` [I-323], the IC50 was > 5 µM.

For `N#Cc1cccc(-c2ccc(=O)n(CC(=O)O)c2)c1` [I-324], the half-maximal inhibitory concentration (IC50) is > 5 µM.

For `O=C(O)Cc1cccc(NC(=O)c2ccccc2)c1` [I-325], the IC50 is > 5 µM.

On to `O=C(O)Cn1cc(/C=C/c2ccccc2)ccc1=O` [I-326], for which the IC50 was > 5 µM.

For `COc1ccc(-c2ccc(=O)n(CC(=O)O)c2)cn1` [I-327], the IC50 is > 5 µM.

With `O=C(O)Cn1cc(NC(=O)C(c2ccccc2)c2ccccc2)ccc1=O` [I-328], the IC50 was > 5 µM.

For `Cc1cc(=O)n(CC(=O)O)cc1-c1cc(F)c(O)c(F)c1` [I-329], the IC50 was > 5 µM.

Turning to `Cc1ccc(C)c(-c2cn(CC(=O)O)c(=O)cc2C)c1` [I-330], the IC50 is > 5 µM.

`CC(C)=Cc1cccc(-c2ccc(=O)n(CC(=O)O)c2)c1` [I-331]: the 50% inhibitory concentration (IC50) is > 5 µM.

The target of a further experiment is T1, truncated His-MBP-Tev-KLHDC2 (residues 1-363). The experiment can be described thus: KLHDC2 FP competition binding assay. Particulars: 15 nM KLHDC2 (residues 1-363), 10 nM fluorescein-labeled diglycine peptide probe, read-out: KLHDC2 binding Human FP: average external IC50.
Regarding `O=C(O)Cn1cc(-c2cccc(OCc3ccccc3)c2)ccc1=O` [I-300], the IC50 was > 5 µM.

As for `O=C(O)Cn1cc(-c2cncc(OCc3ccccc3)c2)ccc1=O` [I-301], the IC50 was > 5 µM.

In the case of `NC(=O)Cc1cccc(-c2ccc(=O)n(CC(=O)O)c2)c1` [I-302], the IC50 was > 5 µM.

Turning to `O=C(O)Cn1cc(-c2cccc(CN3CCCCC3)c2)ccc1=O` [I-303], the IC50 is > 5 µM.

As for `O=C(O)Cn1cc(-c2cccc(CN3CCOCC3)c2)ccc1=O` [I-304], the IC50 was > 5 µM.

Take `CN1CCN(Cc2cccc(-c3ccc(=O)n(CC(=O)O)c3)c2)CC1` [I-305]: the IC50 is > 5 µM.

As for `O=C(O)Cn1cc(CC(=O)Nc2ccccc2)ccc1=O` [I-306], the IC50 is > 5 µM.

For the molecule `O=C(O)Cn1cc(N2Cc3ccccc3C2=O)ccc1=O` [I-307], the IC50 was > 5 µM.

Consider `Cc1ccc(CC(C)(C)O)cc1-c1ccc(=O)n(CC(=O)O)c1` [I-308], for which the IC50 was > 5 µM.

For `Cc1c(Cl)cccc1OCC(=O)Nc1ccc(=O)n(CC(=O)O)c1` [I-309], the IC50 is > 5 µM.

On to `CC(Cc1ccccc1Cl)C(=O)Nc1ccc(=O)n(CC(=O)O)c1` (stereo not shown) [I-310], for which the IC50 was > 5 µM.

For the molecule `O=C(O)Cn1cc(NC(=O)c2ccc(-c3ccccc3)c(F)c2)ccc1=O` [I-311], the half-inhibitory concentration (IC50) is > 5 µM.

Regarding `O=C(O)Cn1cc(-c2ccc(N3CCOCC3)cc2)ccc1=O` [I-312], the IC50 was > 5 µM.

Consider `NC(=O)Cc1ccc(-c2ccc(=O)n(CC(=O)O)c2)cc1` [I-313], for which the IC50 is > 5 µM.

Consider `O=C(O)Cn1cc(-c2cccc(N3CCCCC3)c2)ccc1=O` [I-314], for which the IC50 was > 5 µM.

For `O=C(O)Cn1cc(NC(=O)c2cccc(-c3ccccc3)c2)ccc1=O` [I-315], the IC50 is > 5 µM.

Consider `Cc1cc(=O)n(CC(=O)O)cc1NC(=O)c1ccccc1` [I-316], for which the IC50 was > 5 µM.

As for `O=C(O)Cn1cc(NS(=O)(=O)c2ccccc2)ccc1=O` [I-317], the half-maximal inhibitory concentration (IC50) was > 5 µM.

As for `CCc1ccccc1C(=O)Nc1ccc(=O)n(CC(=O)O)c1` [I-318], the half-maximal inhibitory concentration (IC50) is > 5 µM.

Consider `Cc1cccc(Cl)c1C(=O)Nc1ccc(=O)n(CC(=O)O)c1` [I-319], for which the IC50 is > 5 µM.

In the case of `COc1cc2ccccc2cc1C(=O)Nc1ccc(=O)n(CC(=O)O)c1` [I-320], the IC50 is > 5 µM.

As for `O=C(O)Cn1cc(NC(=O)c2ccccc2C(F)F)ccc1=O` [I-321], the IC50 is > 5 µM.

In the case of `O=C(O)Cn1cc(-c2cccc(N3CCOCC3)c2)ccc1=O` [I-322], the IC50 was > 5 µM.

For `Cc1cc(-c2ccc(=O)n(CC(=O)O)c2)ccc1OCc1ccccc1` [I-323], the IC50 is > 5 µM.

With `N#Cc1cccc(-c2ccc(=O)n(CC(=O)O)c2)c1` [I-324], the IC50 was > 5 µM.

With `O=C(O)Cc1cccc(NC(=O)c2ccccc2)c1` [I-325], the half-inhibitory concentration (IC50) was > 5 µM.

Take `O=C(O)Cn1cc(/C=C/c2ccccc2)ccc1=O` [I-326]: the IC50 was > 5 µM.

For the molecule `COc1ccc(-c2ccc(=O)n(CC(=O)O)c2)cn1` [I-327], the IC50 is > 5 µM.

As to `O=C(O)Cn1cc(NC(=O)C(c2ccccc2)c2ccccc2)ccc1=O` [I-328], the IC50 was > 5 µM.

`Cc1cc(=O)n(CC(=O)O)cc1-c1cc(F)c(O)c(F)c1` [I-329]: the IC50 was > 5 µM.

Consider `Cc1ccc(C)c(-c2cn(CC(=O)O)c(=O)cc2C)c1` [I-330], for which the IC50 is > 5 µM.

Take `CC(C)=Cc1cccc(-c2ccc(=O)n(CC(=O)O)c2)c1` [I-331]: the IC50 was > 5 µM.
